Measurements reported in patent US20070049593A1 (priority 2004, published 2007).
Where a name gives a salt, the structure may show the parent alone.

biological target: T1, HCV polymerase (Hepatitis C virus genotype 1b, UniProt P26663); assay: biochemical; parameters: species or system HCV BK strain
T1 construct: a region encoding NS5B (J Virol 1991 March, 65(3), 1105-13, 544 amino acids after deletion of 47 amino acids on the C-terminal); 6xHis (C); made in house; host or cells: Escherichia coli
T1 sequence (P26663 2420-2963): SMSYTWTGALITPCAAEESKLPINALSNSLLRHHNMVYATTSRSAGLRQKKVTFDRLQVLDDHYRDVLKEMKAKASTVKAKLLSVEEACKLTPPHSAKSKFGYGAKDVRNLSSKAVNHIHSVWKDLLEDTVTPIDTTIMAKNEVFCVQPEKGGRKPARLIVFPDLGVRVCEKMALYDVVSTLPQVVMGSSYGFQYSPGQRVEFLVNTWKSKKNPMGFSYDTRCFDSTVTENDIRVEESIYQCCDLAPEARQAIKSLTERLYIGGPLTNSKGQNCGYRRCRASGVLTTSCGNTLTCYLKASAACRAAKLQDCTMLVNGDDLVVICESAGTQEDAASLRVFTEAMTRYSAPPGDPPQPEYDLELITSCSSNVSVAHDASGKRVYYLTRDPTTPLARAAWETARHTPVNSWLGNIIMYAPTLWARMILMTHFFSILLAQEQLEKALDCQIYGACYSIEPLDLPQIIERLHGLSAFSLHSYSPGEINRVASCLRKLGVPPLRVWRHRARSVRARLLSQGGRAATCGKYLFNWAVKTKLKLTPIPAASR
Summary of the method: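 Recombinant HCV BK-strain NS5B (C-terminal 47 aa deleted, His6-tagged, E. coli), 0.5 μg/ml, run with 5 μg/ml in vitro-transcribed RNA template (polyU/3′X), ATP/GTP/CTP 50 μM, UTP 2 μM plus [3H]UTP, pH 7.5, 25° C, 90 min. TCA-precipitated RNA counted by scintillation; IC50 from activity with vs without compound.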

Q: Which IC50 does the source give for `CN(C)CCN1CCn2c(c(C3CCCCC3)c3ccc(C(=O)O)cc32)-c2ccc(OCc3cccc(N(C)C)c3)cc21` [Example 1-591, 13-cyclohexyl-3-(3-dimethylaminobenzyloxy)-5-(2-dimethylaminoethyl)-6,7-dihydro-5H-benzo[5,6][1,4]diazepino[7,1-a]indole-10-carboxylic acid trihydrochloride] here?
A: < 0.1 µM

Q: `CCOc1ccc2c(c1)N(C)CCn1c-2c(C2CCCCC2)c2ccc(C(=O)O)cc21` [Example 1-592, 13-cyclohexyl-3-ethoxy-5-methyl-6,7-dihydro-5H-benzo[5,6][1,4]diazepino[7,1-a]indole-10-carboxylic acid] was tested. Which IC50 did it give?
A: < 0.1 µM

Q: `CN1CCn2c(c(C3CCCCC3)c3ccc(C(=O)O)cc32)-c2ccc(OCc3ccccc3)cc21` [Example 1-593, 3-benzyloxy-13-cyclohexyl-5-methyl-6,7-dihydro-5H-benzo[5,6][1,4]diazepino[7,1-a]indole-10-carboxylic acid] was tested. Which IC50 did it give?
A: < 0.1 µM

Q: Which IC50 does the source give for `COc1ccc2c(c1)N(C)CCn1c-2c(C2CCCCC2)c2ccc(C(=O)O)cc21` [Example 1-594, 13-cyclohexyl-3-methoxy-5-methyl-6,7-dihydro-5H-benzo[5,6][1,4]diazepino[7,1-a]indole-10-carboxylic acid] here?
A: < 0.1 µM

Q: With `O=C(O)c1ccc2c(C3CCCCC3)c3n(c2c1)CCN(CCN1CCCCC1)c1cc(OCc2ccccn2)ccc1-3` [Example 1-595, 13-cyclohexyl-5-[2-(piperidin-1-yl)ethyl]-3-(pyridin-2-ylmethoxy)-6,7-dihydro-5H-benzo[5,6][1,4]diazepino[7,1-a]indole-10-carboxylic acid trihydrochloride] as the molecule, how does the IC50 read?
A: < 0.1 µM

Q: Which IC50 does the source give for `CCOc1ccc2c(c1)N(C)CCn1c-2c(C2CCCCC2)c2ccc(C(=O)NC(C)(C)C(=O)Nc3ccc(/C=C/C(=O)O)cc3)cc21` [Example 1-615, (E)-3-(4-{2-[(13-cyclohexyl-3-ethoxy-5-methyl-6,7-dihydro-5H-benzo[5,6][1,4]diazepino[7,1-a]indole-10-carbonyl)amino]-2-methylpropionylamino}phenyl)acrylic acid] here?
A: < 0.1 µM

Q: How did the IC50 turn out when `CCOc1ccc2c(c1)N(C)CCn1c-2c(C2CCCCC2)c2ccc(C(=O)NC3(C(=O)Nc4cccc(/C=C/C(=O)O)c4)CCC3)cc21` [Example 1-616, (E)-3-[3-({1-[(13-cyclohexyl-3-ethoxy-5-methyl-6,7-dihydro-5H-benzo[5,6][1,4]diazepino[7,1-a]indole-10-carbonyl)amino]cyclobutanecarbonyl}amino)phenyl]acrylic acid] was run?
A: < 0.1 µM

Q: How did the IC50 turn out when `CCOc1ccc2c(c1)N(C)CCn1c-2c(C2CCCCC2)c2ccc(C(=O)NC3(C(=O)Nc4ccc(/C=C/C(=O)O)cc4OC)CCC3)cc21` [Example 1-617, (E)-3-[4-({1-[(13-cyclohexyl-3-ethoxy-5-methyl-6,7-dihydro-5H-benzo[5,6][1,4]diazepino[7,1-a]indole-10-carbonyl)amino]cyclobutanecarbonyl}amino)-3-methoxyphenyl]acrylic acid] was run?
A: < 0.1 µM

Q: With `CCOc1ccc2c(c1)N(C)CCn1c-2c(C2CCCCC2)c2ccc(C(=O)NC3(C(=O)Nc4ccc(Cl)c(/C=C/C(=O)O)c4)CCC3)cc21` [Example 1-618, (E)-3-[2-chloro-5-({1-[(13-cyclohexyl-3-ethoxy-5-methyl-6,7-dihydro-5H-benzo[5,6][1,4]diazepino[7,1-a]indole-10-carbonyl)amino]cyclobutanecarbonyl}amino)phenyl]acrylic acid] as the molecule, how does the IC50 read?
A: < 0.1 µM

Q: With `CCOc1ccc2c(c1)N(C)CCn1c-2c(C2CCCCC2)c2ccc(C(=O)NC3(C(=O)Nc4ccc(OC)c(/C=C/C(=O)O)c4)CCC3)cc21` [Example 1-619, (E)-3-[5-({1-[(13-cyclohexyl-3-ethoxy-5-methyl-6,7-dihydro-5H-benzo[5,6][1,4]diazepino[7,1-a]indole-10-carbonyl)amino]cyclobutanecarbonyl}amino)-2-methoxyphenyl]acrylic acid] as the molecule, how does the IC50 read?
A: < 0.1 µM

Q: With `CCOc1ccc2c(c1)N(C)CCn1c-2c(C2CCCCC2)c2ccc(C(=O)NC3(C(=O)Nc4ccc(C)c(/C=C/C(=O)O)c4)CCC3)cc21` [Example 1-620, (E)-3-[5-({1-[(13-cyclohexyl-3-ethoxy-5-methyl-6,7-dihydro-5H-benzo[5,6][1,4]diazepino[7,1-a]indole-10-carbonyl)amino]cyclobutanecarbonyl}amino)-2-methylphenyl]acrylic acid] as the molecule, how does the IC50 read?
A: < 0.1 µM

Q: `CCOc1ccc2c(c1)N(C)CCn1c-2c(C2CCCCC2)c2ccc(C(=O)NC3(C(=O)Nc4ccc(/C=C/C(=O)O)c(C)c4)CCC3)cc21` [Example 1-621, (E)-3-[4-({1-[(13-cyclohexyl-3-ethoxy-5-methyl-6,7-dihydro-5H-benzo[5,6][1,4]diazepino[7,1-a]indole-10-carbonyl)amino]cyclobutanecarbonyl}amino)-2-methylphenyl]acrylic acid] was tested. Which IC50 did it give?
A: < 0.1 µM

Q: Which IC50 does the source give for `CCOc1ccc2c(c1)N(C)CCn1c-2c(C2CCCCC2)c2ccc(C(=O)NC3(C(=O)Nc4ccc(/C=C/C(=O)O)c(OC)c4)CCC3)cc21` [Example 1-622, (E)-3-[4-({1-[(13-cyclohexyl-3-ethoxy-5-methyl-6,7-dihydro-5H-benzo[5,6][1,4]diazepino[7,1-a]indole-10-carbonyl)amino]cyclobutanecarbonyl}amino)-2-methoxyphenyl]acrylic acid] here?
A: < 0.1 µM

Q: Which IC50 does the source give for `CCOc1ccc2c(c1)N(C)CCn1c-2c(C2CCCCC2)c2ccc(C(=O)NC3(C(=O)Nc4ccc(C=CC(=O)O)c(Cl)c4)CCC3)cc21` [Example 1-623, (E)-3-[2-chloro-4-({1-[(13-cyclohexyl-3-ethoxy-5-methyl-6,7-dihydro-5H-benzo[5,6][1,4]diazepino[7,1-a]indole-10-carbonyl)amino]cyclobutanecarbonyl}amino)phenyl]acrylic acid] here?
A: < 0.1 µM

Q: How did the IC50 turn out when `O=C(O)c1ccc2c(C3CCCCC3)c3n(c2c1)CCOc1cc(OCc2ccccc2)ccc1-3` [Example 2-3, 3-benzyloxy-12-cyclohexyl-6,7-dihydro-5-oxa-7a-azadibenzo[a,e]azulene-9-carboxylic acid] was run?
A: < 0.1 µM

Q: How did the IC50 turn out when `COc1ccc2c(c1)OCCn1c-2c(C2CCCCC2)c2ccc(C(=O)O)cc21` [Example 2-4, 12-cyclohexyl-3-methoxy-6,7-dihydro-5-oxa-7a-azadibenzo[a,e]azulene-9-carboxylic acid] was run?
A: < 0.1 µM

Q: `O=C(O)c1ccc2c(C3CCCCC3)c3n(c2c1)CCOc1cc(OCc2cc(N4CCCC4=O)ccc2N2CCOCC2)ccc1-3` [Example 2-5, 12-cyclohexyl-3-[2-(morpholin-4-yl)-5-(2-oxopyrrolidin-1-yl)benzyloxy]-6,7-dihydro-5-oxa-7a-azadibenzo[a,e]azulene-9-carboxylic acid monohydrochloride] was tested. Which IC50 did it give?
A: < 0.1 µM

Q: Which IC50 does the source give for `COc1ccc2c(c1)-c1c(C3CCCCC3)c3ccc(C(=O)O)cc3n1CCO2` [Example 2-6, 12-cyclohexyl-2-methoxy-6,7-dihydro-5-oxa-7a-azadibenzo[a,e]azulene-9-carboxylic acid] here?
A: 0.1 to 1 µM

Q: How did the IC50 turn out when `O=C(O)c1ccc2c(C3CCCCC3)c3n(c2c1)CCOc1cc(OCc2ccc(N4CCCC4=O)cc2N2CCOCC2)ccc1-3` [Example 2-9, 12-cyclohexyl-3-[2-(morpholin-4-yl)-4-(2-oxopyrrolidin-1-yl)benzyloxy]-6,7-dihydro-5-oxa-7a-azadibenzo[a,e]azulene-9-carboxylic acid] was run?
A: < 0.1 µM

Q: How did the IC50 turn out when `CC(C)(C)OC(=O)N1CCC(Oc2ccc3c(c2)OCCn2c-3c(C3CCCCC3)c3ccc(C(=O)O)cc32)CC1` [Example 2-10, 3-(1-tert-butoxycarbonylpiperidin-4-yloxy)-12-cyclohexyl-6,7-dihydro-5-oxa-7a-azadibenzo[a,e]azulene-9-carboxylic acid] was run?
A: < 0.1 µM

Q: With `CC(C)(C)OC(=O)N1CCCC(Oc2ccc3c(c2)OCCn2c-3c(C3CCCCC3)c3ccc(C(=O)O)cc32)C1` (centres unmarked) [Example 2-11, 3-(1-tert-butoxycarbonylpiperidin-3-yloxy)-12-cyclohexyl-6,7-dihydro-5-oxa-7a-azadibenzo[a,e]azulene-9-carboxylic acid] as the molecule, how does the IC50 read?
A: < 0.1 µM

Q: Which IC50 does the source give for `CS(=O)(=O)c1ccc(N2CCOCC2)c(COc2ccc3c(c2)OCCn2c-3c(C3CCCCC3)c3ccc(C(=O)O)cc32)c1` [Example 2-12, 12-cyclohexyl-3-[5-methanesulfonyl-2-(morpholin-4-yl)benzyloxy]-6,7-dihydro-5-oxa-7a-azadibenzo[a,e]azulene-9-carboxylic acid monohydrochloride] here?
A: < 0.1 µM

Q: `CS(=O)(=O)N1CCN(c2ccc(N3CCCC3=O)cc2COc2ccc3c(c2)OCCn2c-3c(C3CCCCC3)c3ccc(C(=O)O)cc32)CC1` [Example 2-13, 12-cyclohexyl-3-[2-(4-methanesulfonylpiperazin-1-yl)-5-(2-oxopyrrolidin-1-yl)benzyloxy]-6,7-dihydro-5-oxa-7a-azadibenzo[a,e]azulene-9-carboxylic acid monohydrochloride] was tested. Which IC50 did it give?
A: < 0.1 µM

Q: `O=C(O)c1ccc2c(C3CCCCC3)c3n(c2c1)CCOc1cc(OCc2ccccc2N2CCOCC2)ccc1-3` [Example 2-14, 12-cyclohexyl-3-[2-(morpholin-4-yl)benzyloxy]-6,7-dihydro-5-oxa-7a-azadibenzo[a,e]azulene-9-carboxylic acid monohydrochloride] was tested. Which IC50 did it give?
A: < 0.1 µM

Q: With `CC(=O)Nc1ccc(N2CCOCC2)c(COc2ccc3c(c2)OCCn2c-3c(C3CCCCC3)c3ccc(C(=O)O)cc32)c1` [Example 2-15, 3-[5-acetylamino-2-(morpholin-4-yl)benzyloxy]-12-cyclohexyl-6,7-dihydro-5-oxa-7a-azadibenzo[a,e]azulene-9-carboxylic acid monohydrochloride] as the molecule, how does the IC50 read?
A: < 0.1 µM

Q: How did the IC50 turn out when `CN(C)CC(=O)Nc1ccc(N2CCOCC2)c(COc2ccc3c(c2)OCCn2c-3c(C3CCCCC3)c3ccc(C(=O)O)cc32)c1` [Example 2-16, 12-cyclohexyl-3-[5-(2-dimethylaminoacetylamino)-2-(morpholin-4-yl)benzyloxy]-6,7-dihydro-5-oxa-7a-azadibenzo[a,e]azulene-9-carboxylic acid dihydrochloride] was run?
A: < 0.1 µM
